In article PMC10993414, “Water Quality Monitoring with the Multiplexed Assay MitoOxTox for Mitochondrial Toxicity, Oxidative Stress Response, and Cytotoxicity in AREc32 Cells” (Environmental Science & Technology, 2024):
Where two headings read alike, the source gives them in different places.

Experiments:
[1] = tested on: mitochondrial membrane potential (MMP) in AREc32 cells
[2] = tested on: Nrf2-mediated oxidative stress response pathway (ARE) in AREc32 cells; details: for Oxidative stress response ECIR1.5: effect concentration leading to induction ratio 1.5, AREc32, 24 h exposure
[3] = tested on: AREc32 cells; test: Cytotoxicity with ImageXpress high-content imaging, MitoOxTox; details: AREc32, 24 h exposure; for Cytotoxicity ImageExpress IC10: 10% reduction in cell viability; for Cytotoxicity ImageExpress log(IC10 (M)): logarithm of IC10, Corning plates
[4] = tested on: AREc32 cells; test: Cytotoxicity (cell confluency) with IncuCyte S3 live cell imaging, MitoOxTox; details: 10% reduction in cell viability; AREc32, 24 h exposure
[5] = tested on: mitochondrial membrane potential (MMP) in AREc32 cells; test: Disruption of mitochondrial membrane potential (m-MPI red/green ratio), MitoOxTox; details: for MMP inhibition activity (in words): MitoOxTox, AREc32
[6] = tested on: AREc32 cells
[7] = tested on: AREc32 cells; remark: listed apart in the source
[8] = ref Cessna et al. 1978; cited from earlier work
[9] = tested on: Nrf2-mediated oxidative stress response pathway (ARE) in AREc32 cells; test: cells; details: Arec32, 24 h, read-out: Oxidative stress response ECIR1.5 (M)
[10] = experimental; ref PhysPropNCCT; cited from earlier work
[11] = tested on: mitochondrial membrane potential (MMP) in HepG2 cells; details: cited from earlier work; for MMP inhibition activity (in words): Tox21 MMP assay, HepG2
[12] = tested on: oxidative stress response in AREc32 cells; parameters: method as in Escher et al. 42; details: original AREc32 reporter gene assay; ref Escher et al. 42; cited from earlier work
[13] = 10% reduction of MMP, AREc32, 24 h exposure
[14] = logarithm of EC10, AREc32, 24 h exposure

CO/C=C(/C(=O)OC)c1ccccc1COc1cccc(C(F)(F)F)n1 [Picoxystrobin]
SRcytotoxicity [1]: 59.5
Oxidative stress response ECIR1.5 [2]: > 139 µM
Cytotoxicity ImageExpress IC10 [3]: 80.1 µM
Cytotoxicity ImageExpress log(IC10 (M)) [3]: -4.10 M
Cytotoxicity Incucyte IC10 [4]: 77.7 µM
MMP inhibition EC10 [5, 13]: 1.35 µM
MMP inhibition log(EC10 (M)) [5, 14]: -5.87 M

CNC(=O)/C(=N/OC)c1ccccc1COc1cc(C)ccc1C [Dimoxystrobin]
Cytotoxicity Incucyte IC10 [6]: 129 µM
Cytotoxicity ImageExpress IC10 [7]: 142 µM
Cytotoxicity ImageExpress log(IC10 (M)) [7]: -3.85 M
SRcytotoxicity [1]: 324
Oxidative stress response ECIR1.5 [2]: > 206 µM
MMP inhibition EC10 [5, 13]: 0.439 µM
MMP inhibition log(EC10 (M)) [5, 14]: -6.36 M

N#Cc1cc(Br)c(O)c(Br)c1 [Bromoxynil]
pKa (Acid) [8]: 4.21
MMP inhibition EC10 [5, 13]: 21.9 µM
MMP inhibition log(EC10 (M)) [5, 14]: -4.66 M

O=[N+]([O-])c1ccc(O)c([N+](=O)[O-])c1 [2,4-Dinitrophenol]
Cytotoxicity Incucyte IC10 ([6]; human): 281 µM
Cytotoxicity ImageExpress IC10 ([7]; human): 426 µM
Cytotoxicity ImageExpress log(IC10 (M)) ([7]; human): -3.37 M
SRcytotoxicity ([1]; human): 35.1
activation of the oxidative stress response (in words) ([2]; AREc32): activated
EC (induction ratio 1.5) [9]: 0.000156 M
log Kow [L/L] [10]: 1.67 L/L
MMP inhibition EC10 [5, 13]: 12.1 µM
MMP inhibition log(EC10 (M)) [5, 14]: -4.92 M

O=C(Nc1ccccc1-c1ccc(Cl)cc1)c1cccnc1Cl [Boscalid]
Cytotoxicity Incucyte log(IC10 (M)) [6]: no cytotoxicity
Cytotoxicity Incucyte IC10 ([6]; human, 24 h): > 83.2 µM
Cytotoxicity ImageExpress log(IC10 (M)) [7]: no cytotoxicity
Cytotoxicity ImageExpress IC10 ([7]; human, 24 h): > 83.2 µM
EC (induction ratio 1.5) [9]: > 8.32e-05 M
log Kow [L/L] [10]: 2.96 L/L
MMP inhibition activity (in words) [11]: inactive
MMP inhibition EC10 [5, 13]: > 83.2 µM
MMP inhibition EC10 (M) ([5]; 10% reduction of MMP, AREc32, 24 h exposure, listed as boscalid): > 8.32 × 10^–5 M
MMP inhibition activity (in words) [5]: inactive
MMP inhibition log(EC10 (M)) [5, 14]: no Effect

CC(C)(C)c1cc(O)ccc1O [tBHQ, tert-butylhydroquinone]
ECIR1.5 ([2]; current study, multiplexed MitoOxTox, AREc32): 3.14 µM
ECIR1.5 [12]: 1.32 µM

CC1=C(C(=O)Nc2ccccc2)SCCO1 [Carboxin]
Cytotoxicity Incucyte IC10 ([6]; human, 24 h): 1080 µM
Cytotoxicity ImageExpress log(IC10 (M)) [7]: no cytotoxicity
Cytotoxicity ImageExpress IC10 ([7]; human, 24 h): > 429 µM
activation of the oxidative stress response (in words) ([2]; AREc32): activated
EC (induction ratio 1.5) [9]: 0.00014 M
log Kow [L/L] [10]: 2.14 L/L
MMP inhibition EC10 [5, 13]: 152 µM
EC10 ([5]; MMP, AREc32, 24 h): 152 µM
MMP inhibition log(EC10 (M)) [5, 14]: -3.82 M

CC(C)(C)c1ccc(CCOc2ncnc3ccccc23)cc1 [Fenazaquin]
SRcytotoxicity ([1]; human): 9356
EC (induction ratio 1.5) [9]: > 0.000314 M
log Kow [L/L] [10]: 5.51 L/L
MMP inhibition activity (in words) [11]: only active in the MitoOxTox assay
Cytotoxicity ImageExpress IC10 [3]: 110 µM
Cytotoxicity ImageExpress log(IC10 (M)) [3]: -3.96 M
Cytotoxicity Incucyte IC10 [4]: 100 µM
MMP inhibition EC10 [5, 13]: 0.0118 µM
MMP inhibition activity (in words) [5]: active
MMP inhibition log(EC10 (M)) [5, 14]: -7.93 M

CCC/C=C/C=C/C(=O)O[C@H]1/C(=C/C(=O)OC)C[C@H]2C[C@H]([C@@H](C)O)OC(=O)C[C@H](O)C[C@@H]3C[C@H](OC(C)=O)C(C)(C)[C@](O)(C[C@@H]4C/C(=C/C(=O)OC)C[C@H](/C=C/C(C)(C)[C@]1(O)O2)O4)O3 [bryostatin 1]
EC50 ([11]; HepG2 cells, 1 h of exposure, read-out: EC50 (decrease of MMP)): 0.0096 µM

Oc1c(Cl)c(Cl)c(Cl)c(Cl)c1Cl [Pentachlorophenol]
Cytotoxicity Incucyte IC10 ([6]; human): 67.9 µM
Cytotoxicity ImageExpress IC10 ([7]; human): 74.4 µM
Cytotoxicity ImageExpress log(IC10 (M)) ([7]; human): -4.13 M
SRcytotoxicity ([1]; human): 6.6
activation of the oxidative stress response (in words) [2]: activated
SRcytotoxicity (oxidative stress response) ([2]; human): 6.6
EC (induction ratio 1.5) [9]: 6.91e-05 M
MMP inhibition EC10 [5]: 11.2 µM
MMP inhibition log(EC10 (M)) [5]: -4.95 M
